Laboratory results as given in US9669003B2, “Use of flavone and flavanone derivatives in preparation of sedative and hypnotic drugs” (priority 2012, dated 2017).
Marks after values point to notes of the source that are not given here.

System: Kunming mice
Assay: Influence on autonomic activity of normal mice (ZIL-2 mice autonomic activity meter, counts within 10 min)
Format: in vivo
Conditions: intragastric, 25 mg/kg, 1 h after administration, x ± s, n = 10
From the text: (§1) 1.1 Animals for experiments: Kunming mice, weighting 18.9˜22.2 g for females, and 20.2˜23.0 g for males, licensed under SCXK-(Ji) 2007-0003, and provided by The experimental animal centre, Jilin University.
(§2) 1.2 Chemicals for experiments: The flavone derivatives provided in Examples 1-41 and the flavanone derivatives provided in Examples 42-71 are all formulated with 0.5% sodium carboxymethyl cellulose as solutions with required concentrations.
(§3) 1.3 Grouping of animals: 6420 animals are employed in the entire experiments and 2140 of the animals are randomly divided into 214 groups by gender, and the […] include: control group, low dosage group for each experimental drugs (25 mg/kg), medium dosage group for each experimental drugs (50 mg/kg), and high dosage group for each experimental drugs (100 mg/kg). Each group has 10 animals and either female or male constitutes half of the group. The groups are used in behavior observation and voluntary action observation. The other 4280 animals are randomly divided into 214 groups by gender respectively (the grouping way is the same with that described above). Each group has 20 animals and either female or male constitutes half of the group. In each group, 10 animals are used in hypnosis experimentations with pentobarbital sodium doses below the threshold, and the other 10 animals are used hypnosis experimentations with pentobarbital sodium doses at the threshold.
1.4 Experimental instrument and agents: ZIL-2 mice autonomic activity meter, production of Institute of Materia Medica of Chinese Academy of Medical Sciences; pentobarbital sodium, Lot: 100808, 25 g/bottle, Beijing Chemical Reagent Company equipment imported from Germany.
1.5.2 Influence on Autonomic Activity of Normal Mice
After observing the general behavior, in 1 h, 2 h and 24 h after drug administration, respectively, ZIL-2 mice autonomic activity meter is put respectively. Number of autonomic activities of each group of mice is measured within 10 min. Results among groups are compared.
(§4) Number of autonomic activities is detected by leneve Test for homogeneity of variance. If the homogeneity of variance is good (P>0.05), statistical analysis is performed with ANOVA. If ANOVA have statistical significance (P≦0.05), Dunnett's test for multiple comparisons analysis is performed. Number of animals of sleeping mice is applied of ANOVA. Incidence rate of animal asleep is applied of χ2 test. Sleep latency and sleep duration are recorded in min, averaged by group, represented by standard deviation, and undergo statistical analysis using ANOVA.

Question: C=Cc1cc(-c2cc(=O)c3c(C4CCSC4)cc(C(N)=O)cc3o2)cc(N)c1CC (stereo not drawn) [Example 17] was tested. Which “Times of activities in 1 h after drug administration/10 min” value (“Times of activities in 1 h” below) did it give?
Answer: 284.9 ± 49.3 /10 min

Same assay, conditions: intragastric, 25 mg/kg, 1 h after administration, x ± s, n = 10, 25 mg/kg

Question: With COc1cc(OC)c2c(=O)cc(-c3ccc(OC)c(OC)c3)oc2c1 [Example 36] as the compound, how does the “Times of activities in 1 h” value read?
Answer: 321.4 ± 53.4 /10 min

Same assay, conditions: intragastric, 25 mg/kg, 2 h after administration, x ± s, n = 10

Question: How did the “Times of activities in 2 h after drug administration/10 min” value (from here on “Times of activities in 2 h”) turn out when C=Cc1cc(-c2cc(=O)c3c(C4CCSC4)cc(C(N)=O)cc3o2)cc(N)c1CC (stereo not drawn) [Example 17] was run?
Answer: 280.1 ± 42.7 /10 min

Same assay, conditions: intragastric, 25 mg/kg, 2 h after administration, x ± s, n = 10, 25 mg/kg

Question: With COc1cc(OC)c2c(=O)cc(-c3ccc(OC)c(OC)c3)oc2c1 [Example 36] as the compound, how does the “Times of activities in 2 h” value read?
Answer: 310.8 ± 51.5 /10 min

Same assay, conditions: intragastric, 25 mg/kg, 24 h after administration, x ± s, n = 10

Question: How did the “Times of activities in 24 h after drug administration/10 min” value (shortened to “Times of activities in 24 h”) turn out when C=Cc1cc(-c2cc(=O)c3c(C4CCSC4)cc(C(N)=O)cc3o2)cc(N)c1CC (stereo not drawn) [Example 17] was run?
Answer: 306.2 ± 81.3 /10 min

Same assay, conditions: intragastric, 25 mg/kg, 24 h after administration, x ± s, n = 10, 25 mg/kg

Question: How did the “Times of activities in 24 h” value turn out when COc1cc(OC)c2c(=O)cc(-c3ccc(OC)c(OC)c3)oc2c1 [Example 36] was run?
Answer: 300.2 ± 79.6 /10 min

Same assay, conditions: intragastric, 50 mg/kg, 1 h after administration, x ± s, n = 10

Question: C=Cc1cc(-c2cc(=O)c3c(C4CCSC4)cc(C(N)=O)cc3o2)cc(N)c1CC (stereo not drawn) [Example 17] was tested. Which “Times of activities in 1 h” value did it give?
Answer: 176.6 ± 50.2 /10 min

Same assay, conditions: intragastric, 50 mg/kg, 1 h after administration, x ± s, n = 10, 50 mg/kg

Question: COc1cc(OC)c2c(=O)cc(-c3ccc(OC)c(OC)c3)oc2c1 [Example 36] was tested. Which “Times of activities in 1 h” value did it give?
Answer: 289.9 ± 44.8 /10 min

Same assay, conditions: intragastric, 50 mg/kg, 2 h after administration, x ± s, n = 10

Question: Which “Times of activities in 2 h” value does the source give for C=Cc1cc(-c2cc(=O)c3c(C4CCSC4)cc(C(N)=O)cc3o2)cc(N)c1CC (stereo not drawn) [Example 17] here?
Answer: 189.3 ± 57.3 /10 min

Same assay, conditions: intragastric, 50 mg/kg, 2 h after administration, x ± s, n = 10, 50 mg/kg

Question: With COc1cc(OC)c2c(=O)cc(-c3ccc(OC)c(OC)c3)oc2c1 [Example 36] as the compound, how does the “Times of activities in 2 h” value read?
Answer: 258.2 ± 43.6 /10 min

Same assay, conditions: intragastric, 50 mg/kg, 24 h after administration, x ± s, n = 10

Question: How did the “Times of activities in 24 h” value turn out when C=Cc1cc(-c2cc(=O)c3c(C4CCSC4)cc(C(N)=O)cc3o2)cc(N)c1CC (stereo not drawn) [Example 17] was run?
Answer: 291.5 ± 70.0 /10 min

Same assay, conditions: intragastric, 50 mg/kg, 24 h after administration, x ± s, n = 10, 50 mg/kg

Question: For COc1cc(OC)c2c(=O)cc(-c3ccc(OC)c(OC)c3)oc2c1 [Example 36], which “Times of activities in 24 h” value is on record?
Answer: 311.5 ± 98.3 /10 min

Same assay, conditions: intragastric, 100 mg/kg, 1 h after administration, x ± s, n = 10

Question: How did the “Times of activities in 1 h” value turn out when C=Cc1cc(-c2cc(=O)c3c(C4CCSC4)cc(C(N)=O)cc3o2)cc(N)c1CC (stereo not drawn) [Example 17] was run?
Answer: 153.1 ± 38.4 /10 min

Same assay, conditions: intragastric, 100 mg/kg, 1 h after administration, x ± s, n = 10, 100 mg/kg

Question: For COc1cc(OC)c2c(=O)cc(-c3ccc(OC)c(OC)c3)oc2c1 [Example 36], which “Times of activities in 1 h” value is on record?
Answer: 288.3 ± 50.4 /10 min

Same assay, conditions: intragastric, 100 mg/kg, 2 h after administration, x ± s, n = 10

Question: With C=Cc1cc(-c2cc(=O)c3c(C4CCSC4)cc(C(N)=O)cc3o2)cc(N)c1CC (stereo not drawn) [Example 17] as the compound, how does the “Times of activities in 2 h” value read?
Answer: 135.9 ± 48.7 /10 min

Same assay, conditions: intragastric, 100 mg/kg, 2 h after administration, x ± s, n = 10, 100 mg/kg

Question: COc1cc(OC)c2c(=O)cc(-c3ccc(OC)c(OC)c3)oc2c1 [Example 36] was tested. Which “Times of activities in 2 h” value did it give?
Answer: 235.8 ± 49.8 /10 min

Same assay, conditions: intragastric, 100 mg/kg, 24 h after administration, x ± s, n = 10

Question: C=Cc1cc(-c2cc(=O)c3c(C4CCSC4)cc(C(N)=O)cc3o2)cc(N)c1CC (stereo not drawn) [Example 17] was tested. Which “Times of activities in 24 h” value did it give?
Answer: 302.1 ± 89.0 /10 min

Same assay, conditions: intragastric, 100 mg/kg, 24 h after administration, x ± s, n = 10, 100 mg/kg

Question: With COc1cc(OC)c2c(=O)cc(-c3ccc(OC)c(OC)c3)oc2c1 [Example 36] as the compound, how does the “Times of activities in 24 h” value read?
Answer: 322.6 ± 76.8 /10 min

System: Kunming mice
Assay: Influence on hypnosis effect with pentobarbital sodium doses below the threshold (25 mg/kg i.p.)
Format: in vivo
Conditions: test drug 25 mg/kg intragastric single dose, pentobarbital sodium 25 mg/kg i.p. 60 min later, sleep observed in 30 min, n = 10
From the text: as §1, §2, §3
1.5.3 Influence on Hypnosis Effect with Mice Pentobarbital Sodium Doses Below the Threshold
(§5) The drug is intragastric administered in mice for single time, 2 animals of each group are given drug per round with the dosing interval of 40 min (±5 min). According to the administration round, in 60 min (±5 min) of each round after the drug administration, the animals were intraperitoneally injected 0.3% sodium pentobarbital 25 mg/kg, respectively. Sleep condition of the animals were observed within 30 min (under sleep determination standard of loss of righting reflex more than 1 min). After animals undergo loss of righting reflex, number of the animals is recorded, to calculate sleep percentage.
as §4

Question: How did the “Number of sleeping animals” value turn out when COc1cc(OC)c2c(=O)cc(-c3ccc(OC)c(OC)c3)oc2c1 [Example 36] was run?
Answer: 3

Question: What about the “rate of sleeping (%)” value of the same compound?
Answer: 30%

Question: How did the “Number of sleeping animals” value turn out when C=Cc1cc(-c2cc(=O)c3c(C4CCSC4)cc(C(N)=O)cc3o2)cc(N)c1CC (stereo not drawn) [Example 17] was run?
Answer: 3

Question: What about the “rate of sleeping (%)” value of the same compound?
Answer: 30%

Same assay, conditions: test drug 50 mg/kg intragastric single dose, pentobarbital sodium 25 mg/kg i.p. 60 min later, sleep observed in 30 min, n = 10

Question: With COc1cc(OC)c2c(=O)cc(-c3ccc(OC)c(OC)c3)oc2c1 [Example 36] as the compound, how does the “Number of sleeping animals” value read?
Answer: 4

Question: And the “rate of sleeping (%)” value?
Answer: 40* %

Question: Which “Number of sleeping animals” value does the source give for C=Cc1cc(-c2cc(=O)c3c(C4CCSC4)cc(C(N)=O)cc3o2)cc(N)c1CC (stereo not drawn) [Example 17] here?
Answer: 6

Question: And the “rate of sleeping (%)” value?
Answer: 60** %

Same assay, conditions: test drug 100 mg/kg intragastric single dose, pentobarbital sodium 25 mg/kg i.p. 60 min later, sleep observed in 30 min, n = 10

Question: How did the “Number of sleeping animals” value turn out when COc1cc(OC)c2c(=O)cc(-c3ccc(OC)c(OC)c3)oc2c1 [Example 36] was run?
Answer: 6

Question: And the “rate of sleeping (%)” value?
Answer: 60** %

Question: For C=Cc1cc(-c2cc(=O)c3c(C4CCSC4)cc(C(N)=O)cc3o2)cc(N)c1CC (stereo not drawn) [Example 17], which “Number of sleeping animals” value is on record?
Answer: 7

Question: And the “rate of sleeping (%)” value?
Answer: 70** %

System: Kunming mice
Assay: Influence on hypnosis effect with pentobarbital sodium doses at the threshold (50 mg/kg i.p.)
Format: in vivo
Conditions: 25 mg/kg intragastric single dose, pentobarbital sodium 50 mg/kg i.p. 60 min later, x ± s, n = 10
From the text: as §1, §2, §3
1.5.4 Influence on Hypnosis Effect with Mice Pentobarbital Sodium Doses at the Threshold
as §5, with “50” for “25”, “Time to fall asleep (sleep latency) and sleep duration” for “Sleep condition”, “recorded” for “observed”, “under” for “30 min (under”, “min.” for “min). After animals undergo loss of righting reflex, number of the animals is recorded, to calculate sleep percentage.”
as §4

Question: How did the duration of sleep turn out when COc1cc(OC)c2c(=O)cc(-c3ccc(OC)c(OC)c3)oc2c1 [Example 36] was run?
Answer: 38.32 ± 20.03 min

Question: And the time to sleep?
Answer: 4.21 ± 1.65 min

Question: Which results are given for C=Cc1cc(-c2cc(=O)c3c(C4CCSC4)cc(C(N)=O)cc3o2)cc(N)c1CC (stereo not drawn) [Example 17]?
Answer: duration of sleep: 32.56 ± 25.95 min; time to sleep: 5.55 ± 1.45 min

Same assay, conditions: 50 mg/kg intragastric single dose, pentobarbital sodium 50 mg/kg i.p. 60 min later, x ± s, n = 10

Question: What does the source list for COc1cc(OC)c2c(=O)cc(-c3ccc(OC)c(OC)c3)oc2c1 [Example 36]?
Answer: duration of sleep: 61.41 ± 26.54 min; time to sleep: 3.77 ± 1.12 min

Question: For C=Cc1cc(-c2cc(=O)c3c(C4CCSC4)cc(C(N)=O)cc3o2)cc(N)c1CC (stereo not drawn) [Example 17], which duration of sleep is on record?
Answer: 45.62 ± 21.08 min

Question: What about the time to sleep of the same compound?
Answer: 3.97 ± 1.26 min

Same assay, conditions: 100 mg/kg intragastric single dose, pentobarbital sodium 50 mg/kg i.p. 60 min later, x ± s, n = 10

Question: COc1cc(OC)c2c(=O)cc(-c3ccc(OC)c(OC)c3)oc2c1 [Example 36] was tested. Which duration of sleep did it give?
Answer: 72.03 ± 21.92 min

Question: And the time to sleep?
Answer: 3.09 ± 1.25 min

Question: What does the source list for C=Cc1cc(-c2cc(=O)c3c(C4CCSC4)cc(C(N)=O)cc3o2)cc(N)c1CC (stereo not drawn) [Example 17]?
Answer: duration of sleep: 57.86 ± 25.22 min; time to sleep: 3.96 ± 1.14 min
